Results on 28 molecules are retold here after US11446287B2, “Compounds and methods for EP300 or CBP modulation and indications therefor” (Opna Immuno-Oncology SA, priority 2019, dated 2022).

For the assay, the target named is T1, Recombinant human BRD4 containing dual bromodomains (BRD4-BD12 (1-477)) (Homo sapiens, UniProt O60885).
T1 construct: Recombinant human BRD4 containing dual bromodomains (BRD4-BD12 (1-477)); made in house; host or cells: E. coli BL21-CodonPlus (DE3), modified pET vector
The experiment in a line: BRD4 Alphascreen binding assay. In short, it runs like this:
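AlphaScreen proximity between Ni-chelate-bound BRD4-BD12 (1-477) and streptavidin-captured H4 K5/K8/K12/K16-acetyl peptide measured after 1 h room-temperature compound incubation and 30 min with 7.5 μg/ml beads. Buffer: 50 mM HEPES pH 7.5, 50 mM NaCl, 0.01% BSA, 0.01% Triton X-100; data plate-normalized and four-parameter fit for IC50.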

Take `Cc1noc(C)c1-c1cnc2c(c1)c(-c1ccc(C(=O)O)cc1OC(F)(F)F)cn2[C@@H]1CCOC1` [P-0286, (R)-4-(5-(3,5-dimethylisoxazol-4-yl)-1-(tetrahydrofuran-3-yl)-1H-pyrrolo[2,3-b]pyridin-3-yl)-3-(trifluoromethoxy)benzoic acid]: the 50% inhibitory concentration (IC50) was in the range of 8 to 1000 µM. With `CCn1cc(-n2cc(-c3ccc(C(=O)O)cc3OC(F)(F)F)c3cc(-c4c(C)noc4C)cnc32)c(C)n1` [P-0287, 4-(5-(3,5-dimethylisoxazol-4-yl)-1-(1-ethyl-3-methyl-1H-pyrazol-4-yl)-1H-pyrrolo[2,3-b]pyridin-3-yl)-3-(trifluoromethoxy)benzoic acid], the IC50 fell in the range of 1 to 8 µM. For `Cc1nn(C(F)F)cc1-n1cc(-c2ccc(C(=O)O)cc2OC(F)(F)F)c2cc(-c3c(C)noc3C)cnc21` [P-0288, 4-(1-(1-(difluoromethyl)-3-methyl-1H-pyrazol-4-yl)-5-(3,5-dimethylisoxazol-4-yl)-1H-pyrrolo[2,3-b]pyridin-3-yl)-3-(trifluoromethoxy)benzoic acid], the IC50 was 1 to 8 µM. For the molecule `Cc1noc(C)c1-c1cnc2c(c1)c(-c1ccc(C(=O)O)cc1OC(F)(F)F)cn2-c1cnn(C(F)F)c1C` [P-0289, 4-(1-(1-(difluoromethyl)-5-methyl-1H-pyrazol-4-yl)-5-(3,5-dimethylisoxazol-4-yl)-1H-pyrrolo[2,3-b]pyridin-3-yl)-3-(trifluoromethoxy)benzoic acid], the 50% inhibitory concentration (IC50) was in the range of 1 to 8 µM.

As to `Cc1noc(C)c1-c1cnc2c(c1)c(-c1ccc(C(=O)O)cc1OC(F)(F)F)cn2C1CCNCC1` [P-0290, 4-(5-(3,5-dimethylisoxazol-4-yl)-1-(piperidin-4-yl)-1H-pyrrolo[2,3-b]pyridin-3-yl)-3-(trifluoromethoxy)benzoic acid], the half-maximal inhibitory concentration (IC50) lay within 8 to 1000 µM.

Turning to `CC(=O)N1CCC(n2cc(-c3ccc(C(=O)O)cc3OC(F)(F)F)c3cc(-c4c(C)noc4C)cnc32)CC1` [P-0291, 4-(1-(1-acetylpiperidin-4-yl)-5-(3,5-dimethylisoxazol-4-yl)-1H-pyrrolo[2,3-b]pyridin-3-yl)-3-(trifluoromethoxy)benzoic acid], the IC50 lay in the range of 8 to 1000 µM. For `Cc1noc(C)c1-c1cnc2c(c1)c(-c1ccc(C(=O)O)cc1OC(F)(F)F)cn2C1CCN(S(C)(=O)=O)CC1` [P-0292, 4-(5-(3,5-dimethylisoxazol-4-yl)-1-(1-(methylsulfonyl)piperidin-4-yl)-1H-pyrrolo[2,3-b]pyridin-3-yl)-3-(trifluoromethoxy)benzoic acid] the value was 1 to 8 µM. For `Cc1noc(C)c1-c1cnc2c(c1)c(-c1ccc(C(=O)O)cc1OC(F)(F)F)cn2-c1ccncc1F` [P-0293, 4-(5-(3,5-dimethylisoxazol-4-yl)-1-(3-fluoropyridin-4-yl)-1H-pyrrolo[2,3-b]pyridin-3-yl)-3-(trifluoromethoxy)benzoic acid] the value was 1 to 8 µM; for `Cc1noc(C)c1-c1cnc2c(c1)c(-c1ccc(C(=O)O)cc1OC(F)(F)F)cn2-c1cnn(CC(C)(C)O)c1` [P-0294, 4-(5-(3,5-dimethylisoxazol-4-yl)-1-(1-(2-hydroxy-2-methylpropyl)-1H-pyrazol-4-yl)-1H-pyrrolo[2,3-b]pyridin-3-yl)-3-(trifluoromethoxy)benzoic acid], 0.0001 to 1 µM. For `CCOc1cc(C(=O)O)ncc1-c1cn(-c2ccc(F)cc2F)c2ncc(-c3c(C)noc3C)cc12` [P-0295, 5-(1-(2,4-difluorophenyl)-5-(3,5-dimethylisoxazol-4-yl)-1H-pyrrolo[2,3-b]pyridin-3-yl)-4-ethoxypicolinic acid] the value was 1 to 8 µM; for `CCOc1c(F)c(C(=O)O)c(F)c(OCC)c1-c1cn(-c2ccc(F)cc2F)c2ncc(-c3c(C)noc3C)cc12` [P-0296, 4-(1-(2,4-difluorophenyl)-5-(3,5-dimethylisoxazol-4-yl)-1H-pyrrolo[2,3-b]pyridin-3-yl)-3,5-diethoxy-2,6-difluorobenzoic acid], 8 to 1000 µM; for `CCOc1cc(C(=O)O)c(F)c(OCC)c1-c1cn(-c2ccc(F)cc2F)c2ncc(-c3c(C)noc3C)cc12` [P-0297, 4-(1-(2,4-difluorophenyl)-5-(3,5-dimethylisoxazol-4-yl)-1H-pyrrolo[2,3-b]pyridin-3-yl)-3,5-diethoxy-2-fluorobenzoic acid], 8 to 1000 µM. Consider `Cc1noc(C)c1-c1cnc2c(-c3ccccc3)cn(-c3c(OCC(F)(F)F)cc(C(=O)O)cc3OCC(F)(F)F)c2c1` [P-0298, 4-(6-(3,5-dimethylisoxazol-4-yl)-3-phenyl-1H-pyrrolo[3,2-b]pyridin-1-yl)-3,5-bis(2,2,2-trifluoroethoxy)benzoic acid], for which the IC50 lay within 1 to 8 µM. Turning to `Cc1noc(C)c1-c1cnc2c(c1)c(-c1ccc(C(=O)O)cc1OC(C)C)cn2-c1cnn(CC(C)(C)O)c1` [P-0299, 4-(5-(3,5-dimethylisoxazol-4-yl)-1-(1-(2-hydroxy-2-methylpropyl)-1H-pyrazol-4-yl)-1H-pyrrolo[2,3-b]pyridin-3-yl)-3-isopropoxybenzoic acid], the IC50 fell in the range of 1 to 8 µM. For `Cc1noc(C)c1-c1cnc2c(c1)c(-c1ccc(C(=O)O)cc1OC(C)C)cn2-c1cnc(N2CCC2)nc1` [P-0300, 4-(1-(2-(azetidin-1-yl)pyrimidin-5-yl)-5-(3,5-dimethylisoxazol-4-yl)-1H-pyrrolo[2,3-b]pyridin-3-yl)-3-isopropoxybenzoic acid], the concentration for half-maximal inhibition (IC50) lay within 8 to 1000 µM.

As for `Cc1noc(C)c1-c1cnc2c(c1)c(-c1ccc(C(=O)O)cc1OC(C)C)cn2[C@H]1CCOC1` [P-0301, (S)-4-(5-(3,5-dimethylisoxazol-4-yl)-1-(tetrahydrofuran-3-yl)-1H-pyrrolo[2,3-b]pyridin-3-yl)-3-isopropoxybenzoic acid], the half-inhibitory concentration (IC50) was in the range of 8 to 1000 µM.

As for `Cc1noc(C)c1-c1cnc2c(c1)c(-c1ccc(S(C)(=O)=O)cc1OC(C)C)cn2-c1ccccc1` [P-0302, 4-(3-(2-isopropoxy-4-(methylsulfonyl)phenyl)-1-phenyl-1H-pyrrolo[2,3-b]pyridin-5-yl)-3,5-dimethylisoxazole], the half-inhibitory concentration (IC50) was in the range of 8 to 1000 µM.

Take `CCCn1nc(C(=O)O)c(N)c1-c1cn(-c2ccc(F)cc2F)c2ncc(-c3c(C)noc3C)cc12` [P-0303, 4-amino-5-(1-(2,4-difluorophenyl)-5-(3,5-dimethylisoxazol-4-yl)-1H-pyrrolo[2,3-b]pyridin-3-yl)-1-propyl-1H-pyrazole-3-carboxylic acid]: the concentration for half-maximal inhibition (IC50) lay in the range of 8 to 1000 µM. `CCCn1nc(C(=O)O)c(NCC)c1-c1cn(-c2ccc(F)cc2F)c2ncc(-c3c(C)noc3C)cc12` [P-0304, 5-(1-(2,4-difluorophenyl)-5-(3,5-dimethylisoxazol-4-yl)-1H-pyrrolo[2,3-b]pyridin-3-yl)-4-(ethylamino)-1-propyl-1H-pyrazole-3-carboxylic acid]: the IC50 was 1 to 8 µM. For `Cc1nnn(C)c1-c1cnc2c(c1)c(-c1ccc(C(=O)O)cc1OC(F)(F)F)cn2CC/C=C/C1CC1` [P-0305, (E)-4-(1-(4-cyclopropylbut-3-en-1-yl)-5-(1,4-dimethyl-1H-1,2,3-triazol-5-yl)-1H-pyrrolo[2,3-b]pyridin-3-yl)-3-(trifluoromethoxy)benzoic acid] the value was 8 to 1000 µM; for `Cc1noc(C)c1-c1cnc2c(c1)c(-c1ccc(C(=O)O)cc1OCC(F)F)cn2-c1ccncc1Cl` [P-0306, 4-(1-(3-chloropyridin-4-yl)-5-(3,5-dimethylisoxazol-4-yl)-1H-pyrrolo[2,3-b]pyridin-3-yl)-3-(2,2-difluoroethoxy)benzoic acid], 8 to 1000 µM; for `Cc1noc(C)c1-c1cnc2c(c1)c(-c1ccc(C(=O)O)cc1OC(F)(F)F)cn2-c1ccccc1Cl` [P-0307, 4-(1-(2-chlorophenyl)-5-(3,5-dimethylisoxazol-4-yl)-1H-pyrrolo[2,3-b]pyridin-3-yl)-3-(trifluoromethoxy)benzoic acid], 1 to 8 µM.

For `Cc1noc(C)c1-c1cnc2c(c1)c(-c1ccc(C(=O)O)cc1OC(F)(F)F)cn2-c1ccccc1C1CC1` [P-0308, 4-(1-(2-cyclopropylphenyl)-5-(3,5-dimethylisoxazol-4-yl)-1H-pyrrolo[2,3-b]pyridin-3-yl)-3-(trifluoromethoxy)benzoic acid], the 50% inhibitory concentration (IC50) was 1 to 8 µM. For `Cc1noc(C)c1-c1cnc2c(c1)c(-c1ccc(C(=O)O)cc1OC(F)(F)F)cn2-c1ccccc1C#N` [P-0309, 4-(1-(2-cyanophenyl)-5-(3,5-dimethylisoxazol-4-yl)-1H-pyrrolo[2,3-b]pyridin-3-yl)-3-(trifluoromethoxy)benzoic acid] the value was 8 to 1000 µM.

As for `Cc1cc(C#N)ccc1-n1cc(-c2ccc(C(=O)O)cc2OC(F)(F)F)c2cc(-c3c(C)noc3C)cnc21` [P-0310, 4-(1-(4-cyano-2-methylphenyl)-5-(3,5-dimethylisoxazol-4-yl)-1H-pyrrolo[2,3-b]pyridin-3-yl)-3-(trifluoromethoxy)benzoic acid], the IC50 was in the range of 1 to 8 µM. For `COc1ccc(-n2cc(-c3ccc(C(=O)O)cc3OC(F)(F)F)c3cc(-c4c(C)noc4C)cnc32)c(F)c1` [P-0311, 4-(5-(3,5-dimethylisoxazol-4-yl)-1-(2-fluoro-4-methoxyphenyl)-1H-pyrrolo[2,3-b]pyridin-3-yl)-3-(trifluoromethoxy)benzoic acid] the value was 1 to 8 µM.

With `C=C(C)c1ccccc1-n1cc(-c2ccc(C(=O)O)cc2OC(F)(F)F)c2cc(-c3c(C)noc3C)cnc21` [P-0312, 4-(5-(3,5-dimethylisoxazol-4-yl)-1-(2-(prop-1-en-2-yl)phenyl)-1H-pyrrolo[2,3-b]pyridin-3-yl)-3-(trifluoromethoxy)benzoic acid], the IC50 is 8 to 1000 µM. For `Cc1noc(C)c1-c1cnc2c(c1)c(-c1ccc(C(=O)O)cc1OC(F)(F)F)cn2-c1ccc(C#N)cc1` [P-0313, 4-(1-(4-cyanophenyl)-5-(3,5-dimethylisoxazol-4-yl)-1H-pyrrolo[2,3-b]pyridin-3-yl)-3-(trifluoromethoxy)benzoic acid] the value was 1 to 8 µM.
